Test results taken from patent US20080293644A1, “GUAVA EXTRACT” (priority 2007, published 2008).

How the values were obtained:
DP-IV = molecular target: T1, DP-IV (Homo sapiens, UniProt P27487); test: DP-IV activity colorimetric assay (Gly-Pro-4-NA hydrolysis, 405 nm) in human plasma; assay type: biochemical; conditions: for %-Inhibition DP-IV / inhibition at 100000 µM: unspecific enzyme inhibitors and solvents at 100 mM
T1 construct: DP-IV also exists as a soluble circulating form in plasma; from tissue; host or cells: human plasma
T1 sequence (P27487 39-766 limits assumed): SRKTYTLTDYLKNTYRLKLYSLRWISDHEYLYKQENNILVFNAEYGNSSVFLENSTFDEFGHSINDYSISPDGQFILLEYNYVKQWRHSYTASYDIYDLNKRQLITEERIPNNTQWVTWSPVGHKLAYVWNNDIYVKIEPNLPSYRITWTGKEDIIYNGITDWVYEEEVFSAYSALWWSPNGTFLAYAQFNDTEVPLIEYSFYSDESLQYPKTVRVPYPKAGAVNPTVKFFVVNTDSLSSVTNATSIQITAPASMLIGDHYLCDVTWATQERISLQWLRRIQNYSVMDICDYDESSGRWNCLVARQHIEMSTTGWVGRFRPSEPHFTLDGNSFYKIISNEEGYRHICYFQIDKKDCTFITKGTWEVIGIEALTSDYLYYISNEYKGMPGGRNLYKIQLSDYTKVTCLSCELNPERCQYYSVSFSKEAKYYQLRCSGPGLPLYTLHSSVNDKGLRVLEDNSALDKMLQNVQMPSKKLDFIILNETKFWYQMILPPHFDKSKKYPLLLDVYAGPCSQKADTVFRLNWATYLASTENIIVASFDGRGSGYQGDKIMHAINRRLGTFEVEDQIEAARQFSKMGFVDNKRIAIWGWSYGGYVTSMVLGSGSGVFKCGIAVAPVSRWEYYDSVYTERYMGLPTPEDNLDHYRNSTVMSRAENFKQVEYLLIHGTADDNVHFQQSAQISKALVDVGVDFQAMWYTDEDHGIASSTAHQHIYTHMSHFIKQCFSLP
Method: DP-IV activity was measured by a colorimetric assay.
400 μL assay buffer (9.5 g HEPES/l distilled water, pH adjusted to 7.0, product number H4034, Sigma, St. Louis, Mo.), 150 μL human plasma and 100 μL inhibitor solution (or solvent) were transferred into a photometer cuvette, gently mixed and pre-incubated at 37° C. for 3 minutes. The assay was then started by addition of 70 μL substrate solution (8.6 mg Gly-Pro-4-NA in 10 ml assay buffer).
DP-IV activity is expressed as the linear change in optical density over 20 min (Δ Abs/min).
Full inhibition (100%) indicated no apparent increase in absorption.
100% activity in a test sample indicated the same increase in absorption compared in a sample with no inhibitor. Zero activity (0%) indicated no apparent increase in absorption.

[1] = Stability of individual flavonol-glycosides during incubation conditions; assay type: physicochemical; conditions: 2 g extract (Example 2)/100 ml incubation media
CaCO2 cells = test: Absorption (uptake) of quercetin-glycosides in CaCO2 cells; assay type: in vitro ADME; conditions: 60 minutes; for % uptake by CaCO2 cells (% of flavonol-glycosides present in incubation media): 2 g guava extract/100 ml incubation media, 37° C., mean of 5 incubations
Method: Incubation conditions: 37° C. for 60 minutes (5 replicate incubations)
Data evaluation: Ratio of peak areas of individual flavonol-glycosides obtained from HPLC analysis of incubation media (immediately after preparation and after 60 minutes of incubation) and the cell content.
Cells were grown in 75 cm^2 culture-flasks (T75) and subcultured after one week (every other day washed with PBS buffer, removed with trypsin and transferred to an new culture flask).
7 to 8 days until confluency was reached. The cells were washed with PBS buffer and incubated with the flavonol for 60 minutes.
After the corresponding incubation time, 900 μl of incubation medium used was taken from each well and mixed with 100 μl formic acid. The cells were washed with PBS buffer and removed using 1 ml of 10% formic acid. Cells were sonicated 3 times for 30 seconds, centrifuged for 10 minutes and the pellets were discarded. The supernatant was used as sample for HPLC.

## C[S+](C)[O-] [DMSO]
DP-IV; human plasma
  %-Inhibition DP-IV: 75.3%

## O=C(O)CN(CCN(CC(=O)O)CC(=O)O)CC(=O)O [EDTA]
DP-IV; human plasma
  %-Inhibition DP-IV: 24.0%

## CCO [Ethanol]
DP-IV; human plasma
  inhibition at 100000 µM: 52.8%

## Cl.NCCN [Ethylendiamine•HCl]
DP-IV; human plasma
  %-Inhibition DP-IV: 19.0%

## OCCS [Mercaptoethanol]
DP-IV; human plasma
  %-Inhibition DP-IV: 15.3%

## CO [Methanol]
DP-IV; human plasma
  inhibition at 100000 µM: 59.7%

## Cn1ccnc1S [Methimazol]
DP-IV; human plasma
  %-Inhibition DP-IV: 10.0%

## C[CH2][Hg][S]c1ccccc1C(=O)[O-].[Na+] [Thimerosal]
DP-IV; human plasma
  %-Inhibition DP-IV: <1.0%

## [Zn+2] [Zinc^++]
DP-IV; human plasma
  %-Inhibition DP-IV: 19.3%

## O=c1c(O[C@@H]2O[C@H](CO)[C@@H](O)[C@H](O)[C@H]2O)c(-c2ccc(O)c(O)c2)oc2cc(O)cc(O)c12 [compound 4]
[1]
  Stability 60 min. at 37° C., pH = 7: 98.2 % from time = 0
CaCO2 cells
  % uptake by CaCO2 cells (% of flavonol-glycosides present in incubation media): 4.5%

## O=c1c(O[C@@H]2OC[C@H](O)[C@H](O)[C@H]2O)c(-c2ccc(O)c(O)c2)oc2cc(O)cc(O)c12 [compound 6]
[1]
  Stability 60 min. at 37° C., pH = 7: 98.0 % from time = 0
CaCO2 cells
  % uptake by CaCO2 cells (% of flavonol-glycosides present in incubation media): 5.3%
DP-IV; Concentration for 50% inhibition of DPIV, isolated flavonol-glycosides tested at 100-500 μg/ml, estimated
  IC50: 400 µM

## O=c1c(O[C@@H]2OC[C@H](O)[C@H](O)[C@H]2O)c(-c2ccc(O)c(O)c2)oc2cc(O)cc(O)c12 [guaijaverin, quercetin-3-O-alpha-L-arabinopyranoside]
CaCO2 cells; 2 g guava extract/100 ml
  absorption ranking in CaCO2 cells (in words): best absorption
DP-IV; concentration yielding a DP-IV inhibition of around 50%, human plasma, 70-280 μg/ml tested
  IC50: 322 to 483 µM
DP-IV; human plasma
  DP-IV inhibition (in words): clear, dose dependent inhibition
DP-IV; human plasma, read from dose/response curve
  concentration yielding a DP-IV inhibition of around 50%: 100-150 μg/assay volume
DP-IV; sample adjusted to contain 180 μg guaijaverin/ml test assay, human plasma (FIG. 6)
  inhibition of DP-IV: 50%
